Experimental data reported in the supplement of paper PMC10307832.

How the values were obtained:
Experiment in all cases: relative viability (nuclei count vs DMSO), 5 days (fraction); higher = more cells survive
[1] = compound: CCC1=CN=CN=C1N2CCN(CC2)CC3=NC4=C(N3)C=C(C=C4)C(F)(F)F + CCNC(=O)c1noc(-c2cc(C(C)C)c(O)cc2O)c1-c1ccc(CN2CCOCC2)cc1 [Luminespib] (partner 0.01 µM)
Procedure, shortened: (§1)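 Lung cancer cell lines in 1536-well plates got either a single drug or a fixed anchor-drug dose together with five library-drug doses (not always all listed) in √10 steps, by pin tool, on the day after seeding. Nuclei were counted after 5 days, and relative viability is the treated-to-vehicle ratio of nuclei counts. Values are medians of duplicate plates.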

[2] = compound: CCn1c(-c2nonc2N)nc2cnc(Oc3cccc(NC(=O)c4ccc(OCCN5CCOCC5)cc4)c3)cc21 + O=C(CCCCCCC(=O)Nc1ccccc1)NO [Vorinostat] (partner 1 µM)
Procedure, shortened: as §1

Mirin + Vorinostat = compound: N=C1NC(=O)/C(=C/c2ccc(O)cc2)S1 [Mirin] + O=C(CCCCCCC(=O)Nc1ccccc1)NO [Vorinostat] (partner 1 µM)
Procedure, shortened: as §1

Mirin + Pictilisib = compound: N=C1NC(=O)/C(=C/c2ccc(O)cc2)S1 [Mirin] + CS(=O)(=O)N1CCN(Cc2cc3nc(-c4cccc5[nH]ncc45)nc(N4CCOCC4)c3s2)CC1 [Pictilisib] (partner 1 µM)
Procedure, shortened: as §1

Row | Cell Line | relative viability ([1]; first compound 0.04 µM) | relative viability ([1]; first compound 0.1265 µM) | relative viability ([1]; first compound 0.4 µM) | relative viability ([1]; first compound 4 µM) | relative viability ([2]; first compound 0.04 µM) | relative viability ([2]; first compound 0.1265 µM) | relative viability ([2]; first compound 0.4 µM) | relative viability ([2]; first compound 1.265 µM) | relative viability ([2]; first compound 4 µM) | relative viability (Mirin + Vorinostat; first compound 0.25 µM) | relative viability (Mirin + Vorinostat; first compound 0.7906 µM) | relative viability (Mirin + Vorinostat; first compound 2.5 µM) | relative viability (Mirin + Vorinostat; first compound 7.906 µM) | relative viability (Mirin + Vorinostat; first compound 25 µM) | relative viability (Mirin + Pictilisib; first compound 0.25 µM) | relative viability (Mirin + Pictilisib; first compound 0.7906 µM) | relative viability (Mirin + Pictilisib; first compound 2.5 µM) | relative viability (Mirin + Pictilisib; first compound 7.906 µM) | relative viability (Mirin + Pictilisib; first compound 25 µM) | relative viability ([1]; first compound 1.265 µM)
1 | NCI-H358 | 0.288 | 0.263 | 0.339 | 0.194 | 0.814 | 0.736 | 0.715 | 0.715 | 0.511 | 0.698 | 0.729 | 0.698 | 0.737 | 0.453 | 0.357 | 0.288 | 0.415 | 0.315 | 0.323 | –
2 | NCI-H441 | 0.387 | 0.345 | 0.315 | 0.396 | 1.04 | 0.705 | 0.87 | 0.502 | 0.47 | 0.805 | 0.933 | 0.806 | 0.752 | 0.896 | 0.531 | 0.521 | 0.528 | 0.37 | 0.362 | 0.358
3 | NCI-H460 | 0.0311 | 0.0367 | 0.0386 | 0.0253 | 0.952 | 0.729 | 0.471 | 0.189 | 0.107 | 0.709 | 0.824 | 0.666 | 0.687 | 0.685 | 0.347 | 0.152 | 0.347 | 0.333 | 0.235 | 0.0407
4 | NCI-H520 | 0.243 | 0.256 | 0.264 | 0.199 | 0.957 | 0.856 | 0.774 | 0.478 | 0.297 | 0.67 | 0.807 | 0.729 | 0.561 | 0.527 | 0.275 | 0.284 | 0.274 | 0.202 | 0.181 | –
5 | NCI-H596 | 1.25 | 1.02 | 0.814 | 1.03 | 0.598 | 0.531 | 0.617 | 0.468 | 0.604 | 0.727 | 0.474 | 0.641 | 0.758 | 0.589 | 0.447 | 0.391 | 0.43 | 0.361 | 0.345 | –
6 | NCI-H647 | 0.228 | 0.181 | 0.147 | 0.152 | 0.894 | 0.638 | 0.57 | 0.378 | 0.276 | 0.4 | 0.536 | 0.586 | 0.623 | 0.48 | 0.413 | – | 0.417 | – | 0.295 | 0.0988
7 | NCI-H650 | 0.889 | 0.926 | 0.698 | 0.806 | 0.503 | 0.28 | 0.24 | 0.192 | 0.224 | 0.484 | 0.338 | 0.414 | 0.389 | 0.448 | 0.835 | – | 0.945 | – | 0.744 | 0.739
8 | NCI-H661 | 0.968 | 0.935 | 0.885 | 0.783 | 0.891 | 0.906 | 0.888 | 0.627 | 0.517 | 0.789 | 0.839 | 0.74 | 0.776 | 0.77 | – | 0.329 | 0.499 | – | 0.332 | 0.872
9 | NCI-H727 | 0.423 | 0.362 | 0.306 | 0.426 | – | 1.23 | 1.05 | 0.961 | 1.36 | 0.912 | 1.27 | 1.24 | 1.23 | 1.19 | 0.353 | 0.443 | 0.458 | 0.501 | 0.515 | –
10 | NCI-H838 | 0.271 | 0.229 | 0.308 | 0.327 | 0.459 | 0.372 | 0.337 | 0.329 | 0.205 | 0.773 | 0.751 | 0.765 | 0.802 | 0.82 | 0.465 | 0.398 | 0.562 | 0.54 | 0.421 | 0.342
11 | NCI-H1355 | 0.707 | 0.641 | 0.689 | 0.753 | 0.653 | 0.668 | 0.413 | 0.377 | 0.313 | 0.608 | 0.696 | 0.683 | 0.605 | 0.699 | 0.48 | 0.254 | 0.419 | 0.427 | 0.505 | 0.61
12 | NCI-H1395 | 0.624 | 0.775 | 0.66 | 0.619 | 0.753 | 0.604 | 0.658 | 0.441 | 0.44 | 0.809 | – | 0.822 | 0.811 | 0.938 | 0.578 | – | 0.617 | 0.549 | 0.512 | 0.651
13 | NCI-H1437 | 1.07 | 0.995 | 0.964 | 0.907 | 0.88 | 0.93 | 0.903 | 0.682 | 0.512 | 0.88 | 0.955 | 0.875 | 0.896 | 1.02 | 0.525 | 0.436 | 0.487 | 0.272 | 0.165 | 1.01
14 | NCI-H1650 | 0.212 | 0.207 | 0.186 | 0.213 | 0.666 | 0.59 | 0.562 | 0.596 | 0.528 | 0.497 | 0.656 | 0.51 | 0.482 | 0.495 | 0.576 | 0.494 | 0.592 | 0.447 | 0.385 | –
